Literature values, collected in patent US9221029B2, “Automatic system for synthesizing 123I-MIBG and automatic device for synthesizing and dispensing 123I-MIBG comprising the same” (Institute of Nuclear Energy Research Atomic Energy Council, …, priority 2013, dated 2015).
Like-named read-outs stand apart in the source and are kept apart here.

Legend:
neuroblast = settings: after intravenous injection
neuroblastoma [1] = settings: 21 neuroblastoma patients; especially at bones
[2] = ranging from 15 minutes to 48 hours
neuroblastoma [3] = settings: in vivo
[4] = despite the use of oral potassium iodide (KI)
[5] = used for diagnosis
[6] = system: tumors (neuroblastoma cells); settings: after false-positive and false-negative imaging results are ruled out

For `N=C(N)NCc1cccc(I)c1` [MIBG, meta-iodobenzylguanidine], the gathered in neuroblast (neuroblast) is listed as 90% and the “sensitivity of imaging compared with FDG-PET” value (neuroblastoma [1]) is listed as “higher sensitivity”.
In the case of `N=C(N)NCc1cccc([131I])c1` [^131I-MIBG], the “excreted out of the body through urine” value (24 hours after injection) is listed as 57%, the “excreted out of the body through urine” value (48 hours after injection) is listed as 70% and the “still exists in the blood” value (one hour after injection, neuroblastoma patients) is listed as at most 10%. For the same compound, the saliva-to-plasma ratio [2] was “greater than 1.0”, the “treatment effective rate on neuroblastoma” value (neuroblastoma [3]) was 30-40% and the “side effects of therapy” value [4] was “hypothyroidism still occurs”.
For `N=C(N)NCc1cccc([123I])c1` [^123I-MIBG, iodine-123 meta-iodobenzylguanidine], the “patients with accumulated ^123I-MIBG in salivary glands” value [5] is given as 92-100% and the “specifically bound to tumors” value [6] is given as about 100%.
